Source: ChEMBL document CHEMBL3868595, “Plazomicin is effective in a non-human primate pneumonic plague model” (Bioorg Med Chem, 2016)

Tests used:
Yersinia pestis [1] = experiment: (§1) Antibacterial activity against Yersinia pestis Colorado 92 infected in African green monkey B6783 model assessed as bacterial burden in spleen at 12.5 mg/kg, iv administered within 6 hrs post onset of sustained fever as 30 mins infusion for 5 days (reference value: 1.6 10^9CFU/g); type: functional, CO92
Yersinia pestis [2] = experiment: Antibacterial activity against Yersinia pestis Colorado 92 infected in African green monkey 8047 model assessed as bacterial burden in spleen at 6.25 mg/kg, iv administered within 6 hrs post onset of sustained fever as 30 mins infusion for 10 days (reference value: 1.6 10^9CFU/g); type: functional, CO92
African green monkey [3] = experiment: Toxicity in African green monkey 7929 model infected with Yersinia pestis Colorado 92 assessed as serum gamma glutamyl-transferase level at 25 mg/kg, iv administered within 6 hrs post onset of sustained fever as 30 mins infusion for 10 days (reference value: 44 IU/L); type: organism-based; conditions: chlorocebus sabaeus, in vivo
African green monkey [4] = experiment: Toxicity in African green monkey B6140 model infected with Yersinia pestis Colorado 92 assessed as serum alanine aminotransferase level at 25 mg/kg, iv administered within 6 hrs post onset of sustained fever as 30 mins infusion for 10 days (reference value: 180 IU/L); type: organism-based; conditions: chlorocebus sabaeus, in vivo
Yersinia pestis [5] = experiment: Antibacterial activity against Yersinia pestis Colorado 92 infected in African green monkey B6672 model assessed as bacterial burden in kidney at 12.5 mg/kg, iv administered within 6 hrs post onset of sustained fever as 30 mins infusion for 5 days (reference value: 7.1 10^7CFU/g); type: functional, CO92
Yersinia pestis [6] = experiment: Antibacterial activity against Yersinia pestis Colorado 92 infected in African green monkey B6415 model assessed as bacterial burden in liver at 25 mg/kg, iv administered within 6 hrs post onset of sustained fever as 30 mins infusion for 5 days (reference value: 5.2 10^8CFU/g); type: functional, CO92
Yersinia pestis [7] = experiment: as §1, with “B6873” for “B6783”, “tracheobronchial lymph nodes” for “spleen”, “7.7” for “1.6”; type: functional, organism-based; conditions: CO92, Lymph node
African green monkey [8] = experiment: Toxicity in African green monkey B6408 model infected with Yersinia pestis Colorado 92 assessed as serum creatinine level at 25 mg/kg, iv administered within 6 hrs post onset of sustained fever as 30 mins infusion for 10 days (reference value: 0.5 mg/dl); type: organism-based; conditions: chlorocebus sabaeus, in vivo
African green monkey [9] = experiment: Toxicity in African green monkey B6127 model infected with Yersinia pestis Colorado 92 assessed as dehydration at 25 mg/kg, iv administered within 6 hrs post onset of sustained fever as 30 mins infusion for 10 days; type: organism-based; conditions: chlorocebus sabaeus, in vivo
Yersinia pestis [10] = experiment: Antibacterial activity against Yersinia pestis Colorado 92 infected in African green monkey C2083 model assessed as bacterial burden in liver at 12.5 mg/kg, iv administered within 6 hrs post onset of sustained fever as 30 mins infusion for 5 days (reference value: 5.2 10^8CFU/g); type: functional, CO92
African green monkey [11] = experiment: Toxicity in African green monkey 7972 model infected with Yersinia pestis Colorado 92 assessed as serum creatinine level at 25 mg/kg, iv administered within 6 hrs post onset of sustained fever as 30 mins infusion for 10 days (reference value: 0.8 mg/dl); type: organism-based; conditions: chlorocebus sabaeus, in vivo
Yersinia pestis [12] = experiment: as §1, with “tracheobronchial lymph nodes” for “spleen”, “7.7” for “1.6”; type: functional, CO92, Lymph node
African green monkey [13] = experiment: Toxicity in African green monkey B6140 model infected with Yersinia pestis Colorado 92 assessed as serum creatinine level at 25 mg/kg, iv administered within 6 hrs post onset of sustained fever as 30 mins infusion for 10 days (reference value: 0.8 mg/dl); type: organism-based; conditions: chlorocebus sabaeus, in vivo
Yersinia pestis [14] = experiment: Antibacterial activity against Yersinia pestis Colorado 92 infected in African green monkey B6783 model assessed as bacterial burden in brain at 12.5 mg/kg, iv administered within 6 hrs post onset of sustained fever as 30 mins infusion for 5 days (reference value: 1.9 10^6CFU/g); type: functional, CO92
African green monkey [15] = experiment: Toxicity in African green monkey 7653 model infected with Yersinia pestis Colorado 92 assessed as serum alanine aminotransferase level at 25 mg/kg, iv administered within 6 hrs post onset of sustained fever as 30 mins infusion for 10 days (reference value: 50 IU/L); type: organism-based; conditions: chlorocebus sabaeus, in vivo
[16] = Elimination half life in African green monkey blood at 35 mg/kg administered as iv infusion twice daily for 7 consecutive days measured on day 1 by LC-MS/MS analysis; type: ADME, organism-based; conditions: chlorocebus aethiops, read-out: beta t1/2 (converted)
Yersinia pestis [17] = experiment: Antibacterial activity against Yersinia pestis Colorado 92 infected in African green monkey B6436 model assessed as bacterial burden in lung at 25 mg/kg, iv administered within 6 hrs post onset of sustained fever as 30 mins infusion for 5 days (reference value: 7.7 10^8CFU/g); type: functional, CO92
Yersinia pestis [18] = experiment: Antibacterial activity against Yersinia pestis Colorado 92 infected in African green monkey B6106 model assessed as bacterial burden in heart at 25 mg/kg, iv administered within 6 hrs post onset of sustained fever as 30 mins infusion for 5 days (reference value: 2.6 10^7CFU/g); type: functional, organism-based; conditions: CO92
Yersinia pestis [19] = experiment: Antibacterial activity against Yersinia pestis Colorado 92 infected in African green monkey B6872 model assessed as bacterial burden in spleen at 25 mg/kg, iv administered within 6 hrs post onset of sustained fever as 30 mins infusion for 5 days (reference value: 1.6 10^9CFU/g); type: functional, organism-based; conditions: CO92
[20] = Toxicity in African green monkey B6408 model infected with Yersinia pestis Colorado 92 assessed as total white blood cell count at 25 mg/kg, iv administered within 6 hrs post onset of sustained fever as 30 mins infusion for 10 days (reference value: 6.9 10^3/microL); type: organism-based; conditions: chlorocebus aethiops, in vivo
African green monkey [21] = experiment: Toxicity in African green monkey B5994 model infected with Yersinia pestis Colorado 92 assessed as serum alanine aminotransferase level at 25 mg/kg, iv administered within 6 hrs post onset of sustained fever as 30 mins infusion for 10 days (reference value: 62 IU/L); type: organism-based; conditions: chlorocebus sabaeus, in vivo
Yersinia pestis [22] = experiment: Antibacterial activity against Yersinia pestis Colorado 92 infected in African green monkey B6873 model assessed as bacterial burden in blood at 12.5 mg/kg, iv administered within 6 hrs post onset of sustained fever as 30 mins infusion for 5 days (reference value: 1.2 10^7CFU/ml); type: functional, organism-based; conditions: CO92
Yersinia pestis [23] = experiment: Antibacterial activity against Yersinia pestis Colorado 92 infected in African green monkey B6469 model assessed as bacterial burden in tracheobronchial lymph nodes at 25 mg/kg, iv administered within 6 hrs post onset of sustained fever as 30 mins infusion for 5 days (reference value: 7.7 10^9CFU/g); type: functional, organism-based; conditions: CO92, Lymph node
African green monkey [24] = experiment: Toxicity in African green monkey 8067 model infected with Yersinia pestis Colorado 92 assessed as serum lactate dehydrogenase level at 25 mg/kg, iv administered within 6 hrs post onset of sustained fever as 30 mins infusion for 10 days (reference value: 287 IU/L); type: organism-based; conditions: chlorocebus sabaeus, in vivo
Yersinia pestis [25] = experiment: Antibacterial activity against Yersinia pestis Colorado 92 infected in African green monkey 8047 model assessed as bacterial burden in kidney at 6.25 mg/kg, iv administered within 6 hrs post onset of sustained fever as 30 mins infusion for 10 days (reference value: 7.1 10^7CFU/g); type: functional, CO92
Yersinia pestis [26] = experiment: Antibacterial activity against Yersinia pestis Colorado 92 infected in African green monkey B6889 model assessed as bacterial burden in spleen at 6.25 mg/kg, iv administered within 6 hrs post onset of sustained fever as 30 mins infusion for 5 days (reference value: 1.6 10^9CFU/g); type: functional, CO92

In the case of CN[C@@H]1[C@@H](O)[C@@H](O[C@@H]2[C@@H](O)[C@H](O[C@H]3OC(CNCCO)=CC[C@H]3N)[C@@H](N)C[C@H]2NC(=O)[C@@H](O)CCN)OC[C@]1(C)O [PLAZOMICIN], the Activity (Yersinia pestis [1]) was 10 CFU/g, the Activity (Yersinia pestis [2]) was 19 CFU/g and the Activity (African green monkey [3]) was 16 IU/L. For the same molecule, the Activity (African green monkey [4]) was 71 IU/L, the Activity (Yersinia pestis [5]) was 25 CFU/g and the Activity (Yersinia pestis [6]) was 2 ×10⁶ CFU/g. For the same molecule, the Activity (Yersinia pestis [7]) was “Below limit of detection”, the Activity (African green monkey [8]) was 0.4 mg/dL and the Activity (African green monkey [9]) was “Toxic”. It also gave an Activity (Yersinia pestis [10]) of 4.5 ×10⁹ CFU/g, an Activity (African green monkey [11]) of 0.7 mg/dL and an Activity (Yersinia pestis [12]) of 6.3 ×10⁹ CFU/g. It also gave an Activity (African green monkey [13]) of 0.7 mg/dL, an Activity (Yersinia pestis [14]) of 33 CFU/g and an Activity (African green monkey [15]) of 48 IU/L. For the same molecule, the half-life [16] was 1.7 h, the Activity (Yersinia pestis [17]) was 44 CFU/g and the Activity (Yersinia pestis [18]) was “Below limit of detection”. For the same molecule, the Activity (Yersinia pestis [19]) was “Below limit of detection”, the Activity [20] was 5.5 ×10³ /uL and the Activity (African green monkey [21]) was 46 IU/L. For the same molecule, the Activity (Yersinia pestis [22]) was “Below limit of detection”, the Activity (Yersinia pestis [23]) was “Below limit of detection” and the Activity (African green monkey [24]) was 478 IU/L. For the same molecule, the Activity (Yersinia pestis [25]) was 32 CFU/g and the Activity (Yersinia pestis [26]) was 6.2 ×10⁶ CFU/g.
